Structures are written as SMILES.

The first assay has as its system Acinetobacter baumannii ATCC17961. The experiment in a line: Antimicrobial susceptibility testing, 90% growth inhibitory concentration (IC90) determination, ATCC17961. In kind it is cell-based. The conditions noted are these: Iso-Sensitest broth, OD 600 nm over 16 h, 35±2° C., read-out: ATCC 17961 IC90. The method, then: Antimicrobial Susceptibility Testing: 90% Growth Inhibitory Concentration (IC90) Determination The in vitro antimicrobial activity of the compounds was determined according to the following procedure: The assay used a 10-points Iso-Sensitest broth medium to measure quantitatively the in vitro activity of the compounds against Acinetobacter baumannii ATCC17978 or ATCC17961. Stock compounds in DMSO were serially twofold diluted (e.g. range from 50 to 0.097 μM final concentration) in 384 wells microtiter plates and inoculated with 49 μl the bacterial suspension in Iso-Sensitest medium to have a final cell concentration of ˜5×10^(5) CFU/ml in a final volume/well of 50 ul/well. Microtiter plates were incubated at 35±2° C. Bacterial cell growth was determined with the measurement of optical density at X=600 nm each 20 minutes over a time course of 16 h. Growth inhibition was calculated during the logarithmic growth of the bacterial cells with determination of the concentration inhibiting 50% (IC50) and 90% (IC90) of the growth. Table 2 provides the 90% growth inhibitory concentrations (IC90) in micromoles per liter of the compounds of present invention obtained against the strain Acinetobacter baumannii ATCC17961.
In the case of `COc1ccc(-c2cnc(C(=O)Nc3ccc(C(=O)N[C@H]4[C@@H]5CN(C(=O)[C@@H]6C[C@@H](O)CN6)C[C@@H]54)c(Cl)c3)n2C)c(F)c1F` [Example B43, N-[3-chloro-4-[[(exo)-3-[(2S,4R)-4-hydroxyprolyl]-3-azabicyclo[3.1.0]hexan-6-yl]carbamoyl]phenyl]-5-(2,3-difluoro-4-methoxy-phenyl)-1-methyl-imidazole-2-carboxamide; 1:1 hydrogen chloride], the IC90 (commonly the point of the concentration-response curve where the effect stands at 90%) is 139 nM.
As for `COc1ccc(-c2cnc(C(=O)Nc3ccc(C(=O)N[C@H]4[C@@H]5CN(C(=O)N[C@@H]6CNC[C@H]6O)C[C@@H]54)c(Cl)c3)n2C)c(F)c1F` [Example B44, (exo)-6-[[2-chloro-4-[[5-(2,3-difluoro-4-methoxy-phenyl)-1-methyl-imidazole-2-carbonyl]amino]benzoyl]amino]-N-[(trans)-4-hydroxypyrrolidin-3-yl]-3-azabicyclo[3.1.0]hexane-3-carboxamide; 1:1 hydrogen chloride], the concentration for an effect of 90% (IC90) stood at 155 nM.

A further assay concerns Acinetobacter baumannii ATCC17978. The experiment in a line: Antimicrobial susceptibility testing, 90% growth inhibitory concentration (IC90) determination, ATCC17978. In kind it is cell-based. The conditions noted are these: Iso-Sensitest broth, OD 600 nm over 16 h, 35±2° C., read-out: ATCC 17978 IC90. In outline:
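Serial twofold dilutions (e.g. 50 to 0.097 μM final) in Iso-Sensitest broth, inoculum ~5×10^(5) CFU/ml, incubated 35±2 °C for 16 h. OD600 read every 20 min; growth inhibition calculated during logarithmic growth to derive the concentration inhibiting 90% of growth, in μM.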
Regarding `COc1ccc(-c2cnc(C(=O)Nc3ccc(C(=O)NC4CCN(C(=O)[C@@H]5C[C@@H](O)CN5)CC4)c(Cl)c3)n2C)c(F)c1F` [Example B7, N-[3-chloro-4-[[1-[(2S,4R)-4-hydroxypyrrolidine-2-carbonyl]-4-piperidyl]carbamoyl]phenyl]-5-(2,3-difluoro-4-methoxy-phenyl)-1-methyl-imidazole-2-carboxamide], the concentration for an effect of 90% (IC90) was 82 nM.
Regarding `COc1ccc(-c2cnc(C(=O)Nc3ccc(C(=O)NCC4CC(CN)C4)c(Cl)c3)n2C)c(F)c1F` (centres unmarked) [Example A7, N-[4-[[3-(aminomethyl)cyclobutyl]methylcarbamoyl]-3-chloro-phenyl]-5-(2,3-difluoro-4-methoxy-phenyl)-1-methyl-imidazole-2-carboxamide;formic acid], the IC90 was found to be 240 nM.
For the compound `Cn1c(-c2ccc(OCC#N)c(F)c2F)cnc1C(=O)Nc1ccc(C(=O)NCCOCCN)c(Cl)c1` [Example A9, N-[4-[2-(2-aminoethoxy)ethylcarbamoyl]-3-chloro-phenyl]-5-[4-(cyanomethoxy)-2,3-difluoro-phenyl]-1-methyl-imidazole-2-carboxamide;formic acid], the IC90 was 250 nM.
Take `COc1ccc(-c2cnc(C(=O)Nc3ccc(C(=O)NCC4CCN(CC5CNC5)CC4)c(Cl)c3)n2C)c(F)c1F` [Example C4, N-[4-[[1-(azetidin-3-ylmethyl)-4-piperidyl]methylcarbamoyl]-3-chloro-phenyl]-5-(2,3-difluoro-4-methoxy-phenyl)-1-methyl-imidazole-2-carboxamide;2,2,2-trifluoroacetic acid]: the IC90 was determined as 750 nM.
On to `Cn1c(-c2ccc(OCC#N)c(F)c2F)cnc1C(=O)Nc1ccc(C(=O)NCCNC(=O)[C@H]2CCNC[C@H]2O)c(Cl)c1` [Example B33, (3S,4S)-N-[2-[[2-chloro-4-[[5-[4-(cyanomethoxy)-2,3-difluoro-phenyl]-1-methyl-imidazole-2-carbonyl]amino]benzoyl]amino]ethyl]-3-hydroxy-piperidine-4-carboxamide;formic acid], for which the concentration for an effect of 90% (IC90) worked out at 1100 nM.
Take `COc1ccc(-c2cnc(C(=O)Nc3ccc(C(=O)NC4CCN(C(=O)[C@@H]5C[C@@H](O)CN5)C4)c(Cl)c3)n2C)c(F)c1F` (stereo partly drawn) [Example B3, N-[3-chloro-4-[[1-[(2S,4R)-4-hydroxypyrrolidine-2-carbonyl]pyrrolidin-3-yl]carbamoyl]phenyl]-5-(2,3-difluoro-4-methoxy-phenyl)-1-methyl-imidazole-2-carboxamide;formic acid]: the concentration for an effect of 90% (IC90) came out at 280 nM.
